Measured values as given in US20090076571A1, “MRI-Guided Photodynamic Therapy For Cancer” (priority 2004, published 2009).

Key:
[1] = test system: MDA-MB-231 human breast carcinoma xenograft tumor; assay: Contrast-enhanced MR imaging of tumor-bearing mice after injection of polymer conjugates; format: in vivo, female athymic nu/nu mice; settings: for Contrast in all tissues including tumor, heart and liver compared to pre-contrast: 5 minutes post injection; for Increase in signal intensity of tumor as compared to precontrast: 2 hours post injection, semi-quantitative evaluation, 6 mice per group
Method: Female athymic nu/nu mice were purchased from NCI (Frederick, Md.) at the age of 6 weeks. To generate tumor models, each mouse was injected subcutaneously with 2×10^6 MB-231 cells in 100 μl of culture media mixed with 100 μl of BD MATRIGEL, a solubulized basement membrane preparation extracted from EHS mouse sarcoma, in the flank region. Magnetic resonance imaging and photodynamic therapy studies were carried out at an average tumor size of 25-40 mm^3.
MR imaging was performed on a Siemens Trio 3T MRI scanner. The animals were anesthetized by intra-peritoneal or intra-muscular injection of the anesthetic (mixture of ketamine—80 mg/kg body weight and xylazine—12 mg/kg body weight).
For imaging purposes, the animals were placed in the human wrist coil and pre-contrast images (prior to the injection of the polymer chelate system containing the drug and the contrast agent) were obtained using a 3D FLASH (Fast Low Angle Shot) sequence.
After obtaining the pre-contrast images, the macromolecular complexes were injected at a dose of 0.09 mmol Gd/kg body weight and 6 mg/kg of Mce6 by tail vein injection. Image acquisition was set at 5, 30, 60, 120 minutes and 24 hours post injection. Animal imaging was performed using the multi-phase T1 weighted sequence. The repetition time was about 6 milliseconds to 2 milliseconds, respectively; consistent with the 4 to 8 cm FIV (field of view) and 0.5 mm slice thickness chosen for each animal. The imaging volume was acquired before injection and in rapid succession after injection. Each acquisition required about 30 seconds.
MR imaging. […] FIG. 7 and FIG. 8 show 2D coronal MR images through tumor and heart respectively. The upper panel of FIG. 7 represents mice with Pol1 and the lower panel upper represents mice with Pol2. The upper panel of FIG. 8 represents mice with Pol1 and the lower panel represents mice with Pol2. […] The higher signal in heart may be due to high molecular weight fractions of the control polymer.
Increase in Signal intensity of tumor for both groups as compared to precontrast at 2 hours is 100%. Signal intensity at 18 hours post injection was at least 30% higher than precontrast for both Pol1 and Pol2. Quantitative evaluation of signal intensities using IDL was performed to corroborate the data obtained from semi-quantitative analysis.

[2] = test system: MDA-MB-231 human breast carcinoma xenograft tumor; assay: Efficiency of photodynamic therapy (650 nm laser irradiation of tumor); format: in vivo, female athymic nu/nu mice; settings: for Tumor volume after photodynamic therapy: FIG. 11, irradiation 650 nm, 6 mice per group
Method: Molecular weight determination was carried out by Size Exclusion Chromatography (SEC) on an AKTA FPLC system with a Superdex 200/Superose 6 column equipped with UV and refractive index detectors (Amersham Biosciences Corp., Piscataway, N.J.). The FPLC columns were calibrated with poly[N-(2-hydroxypropyl)methacrylamide] standards. ^1H NMR spectra were acquired on a Varian INOVA 400 at 400 MHz at 25° C. ESI-MS spectra were acquired on a PE Sciex API III Mass Spectrometer at the University of Utah Mass Spectrometry and Proteonomic Core Facility. Meso chlorin content was determined on Cary Win UV-Vis spectrometer. Gd content was determined using Inductively Coupled argon Plasma-Optical Emission Spectrometer (ICP-OES) (Perkin Elmer, Norwalk, Conn., Optima 3100XL). T1 relaxivity measurements for the final conjugates were acquired on a Siemens Trio 3T MRI scanner using standard inversion recovery sequence. Photodynamic therapy was carried out via Diode Odyssey laser (650nm) (CAO Group, UT).
Female athymic nu/nu mice were purchased from NCI (Frederick, Md.) at the age of 6 weeks. […] Magnetic resonance imaging and photodynamic therapy studies were carried out at an average tumor size of 25-40 mm^3.
Then the tumor was irradiated, 2 hours and 18 hours post-injection, using light of wavelength 650 nm (Denlaser) with an input of 220 mW/cm^2 energy and 0.5 mm aperture for irradiation. The time of irradiation was 15 minutes. The mice were then kept away from direct light to avoid extraneous irradiation and the reduction in tumor volume was measured.
Efficiency of Photodynamic therapy.

[3] = T1 relaxivity of polymer complexes; format: physicochemical; settings: Siemens Trio 3T scanner, inversion recovery sequence

Row | Substance | Contrast in all tissues including tumor, heart and liver compared to pre-contrast [1] | Increase in signal intensity of tumor as compared to precontrast [1] [%] | Tumor volume after photodynamic therapy [2] | Mice with tumors larger than 10% of the body weight, sacrificed ([2]; out of 6 mice in the group) | Relaxivity [3] [mM − 1 sec − 1] | Mice surviving for the time period of the experiment ([2]; 90 days, group of 6 mice)
1 | Gd (III)-DOTA-linker-PLGA [Pol2] | increased contrast | 100 | rapid increase in tumors | 5 | 8.33 | –
2 | Gd (III)-DOTA-linker-PLGA-Mce6 [Pol1] | increased contrast | 100 | reduction in tumor volume or slowed tumor growth | – | 8.46 | 4 out of 6
